System in the first data set: not given
Assay: not given
Settings: not given
A word on the melting point: it is the temperature, or range, at which the solid turns liquid. As to `COc1ccc(Cn2nnc(-c3cccc(C(=O)NCc4cccc(C(F)(F)F)c4)c3)n2)cc1` [Example 14, 3-[2-(4-Methoxy-benzyl)-2H-tetrazol-5-yl]-N-(3-trifluoromethyl-benzyl)-benzamide], the melting point is 162 to 163 °C.

Regarding `CC(C)CC#Cc1cccc(-c2nnn(Cc3ccc(C(=O)O)cc3)n2)c1` [Example G3, 4-{5-[3-(4-Methyl-pent-1-ynyl)-phenyl]-tetrazol-2-ylmethyl}-benzoic acid], the melting point was in the range of 192 to 193 °C.

In the case of `CS(=O)(=O)c1ccc(Cn2nnc(-c3ccnc(C(=O)NC4CCc5ccccc54)c3)n2)cc1` (centres unmarked) [Example F9, 4-[2-(4-Methanesulfonyl-benzyl)-2H-tetrazol-5-yl]-pyridine-2-carboxylic acid indan-1-ylamide], the melting point was in the range of 147 to 150 °C.

Regarding `COc1ccc(Cn2nnc(-c3cccc(C(=O)NCc4ccc(F)c(Cl)c4)c3)n2)cc1` [Example 13, N-(3-Chloro-4-fluoro-benzyl)-3-[2-(4-methoxy-benzyl)-2H-tetrazol-5-yl]-benzamide], the melting point lay within 150 to 151 °C.

Turning to `O=C(O)c1ccc(CNC(=O)c2cccc(-c3nnn(Cc4ccc(F)cc4)n3)c2)cc1` [Example 6, 4-({3-[2-(4-Fluoro-benzyl)-2H-tetrazol-5-yl]-benzoylamino}-methyl)-benzoic acid], the melting point was in the range of 222 to 224 °C.

The compound `N#Cc1ccc(Cn2nnc(-c3cccc(C(=O)NCc4ccccc4)c3)n2)cc1` [Example 29, N-Benzyl-3-[2-(4-cyano-benzyl)-2H-tetrazol-5-yl]-benzamide] had a melting point of 191 to 192 °C.

Turning to `C/C=C/Cn1nnc(-c2cccc(C(=O)NCc3ccccc3)c2)n1` [Example 27, N-Benzyl-3-(2-but-2-enyl-2H-tetrazol-5-yl)-benzamide], the melting point was 100 to 101 °C.

As to `COC(=O)c1ccc(CNC(=O)c2cccc(-c3nnn(Cc4cccc(OC)c4)n3)c2)cc1` [Example 3, 4-({3-[2-(3-Methoxy-benzyl)-2H-tetrazol-5-yl]-benzoylamino}-methyl)-benzoic acid methyl ester], the melting point was 153 to 154 °C.

With `O=C(O)c1ccc(CNC(=O)c2cccc(-c3nnn(Cc4cccc(F)c4)n3)c2)cc1` [Example 8, 4-({3-[2-(3-Fluoro-benzyl)-2H-tetrazol-5-yl]-benzoylamino}-methyl)-benzoic acid], the melting point lay in the range of 217 to 219 °C.

For the next data set, the target named is T1, MMP-13 catalytic domain (Homo sapiens, UniProt P45452).
T1 construct: use the catalytic domain of the MMP-13 enzyme, namely matrix metalloproteinase-13 catalytic domain (“MMP-13CD”)
The data set can be described thus: MMP-13 catalytic domain inhibition (thiopeptolide substrate hydrolysis). Type of data set: biochemical. To be noted: read-out: MMP-13CD IC50. An excerpt: The assays measure the amount by which a test compound reduces the hydrolysis of a thiopeptolide substrate catalyzed by a matrix metalloproteinase enzyme. […] One such assay is described below in Biological Method 1.
Some of the particular methods described below use the catalytic domain of the MMP-13 enzyme, namely matrix metalloproteinase-13 catalytic domain (“MMP-13CD”), rather than the corresponding full-length enzyme, MMP-13.
Thiopeptolide substrates show virtually no decomposition or hydrolysis at or below neutral pH in the absence of a matrix metalloproteinase enzyme. A typical thiopeptolide substrate commonly utilized for assays is Ac-Pro-Leu-Gly-thioester-Leu-Leu-Gly-OEt. […] Assays are carried out with and without matrix metalloproteinase inhibitor compounds, and the amount of hydrolysis is compared for a determination of inhibitory activity of the test compounds.
Usually IC50 stands for the point on the concentration scale where inhibition reaches its midpoint. For `O=C(O)c1ccc(Cn2nnc(-c3cccc(C(=O)NCc4ccncc4)c3)n2)cc1` [Example F1, 4-(5-{3-[(Pyridin-4-ylmethyl)-carbamoyl]-phenyl}-tetrazol-2-ylmethyl)-benzoic acid; compound with trifluoro-acetic acid], the IC50 is 99 nM.

In the case of `O=C(O)c1ccc(-c2nnc(-c3cccc(C#CCc4ccccc4)c3)o2)cc1` [Example C1, 4-{5-[3-(3-Phenyl-prop-1-ynyl)-phenyl]-[1,3,4]oxadiazol-2-yl}-benzoic acid], the IC50 worked out at 3400 nM.

In the case of `COc1ccc(-c2cnc(-c3cccc(-c4nnc(Cc5ccc(C(=O)O)cc5)s4)c3)o2)cc1` [Example B3, 4-(5-{3-[5-(4-Methoxy-phenyl)-oxazol-2-yl]-phenyl}-[1,3,4]thiadiazol-2-ylmethyl)-benzoic acid], the IC50 came out at 14 nM.

On to `O=C(O)c1ccc(Cn2nnc(-c3cccc(C#CCn4ccc(=O)cc4)c3)n2)cc1` [Example G6, 4-(5-{3-[3-(4-Oxo-4H-pyridin-1-yl)-prop-1-ynyl]-phenyl}-tetrazol-2-ylmethyl)-benzoic acid], for which the half-maximal inhibitory concentration (IC50) came out at 6.4 nM.

Turning to `Fc1ccc(Cn2nnc(-c3cccc(-c4ncc(-c5ccccc5)o4)c3)n2)cc1F` [Example A5, 2-(3,4-Difluoro-benzyl)-5-[3-(5-phenyl-oxazol-2-yl)-phenyl]-2H-tetrazole], the IC50 was found to be 1800 nM.

Take `O=C(O)c1ccc(Cn2nnc(-c3cccc(C#CCOc4ccc(F)cc4)c3)n2)cc1` [Example G4, 4-(5-{3-[3-(4-Fluoro-phenoxy)-prop-1-ynyl]-phenyl}-tetrazol-2-ylmethyl)-benzoic acid]: the IC50 is 86 nM.

On to `O=C(O)c1ccc(Cn2nnc(-c3cccc(C#CCn4cnc(-c5ccccc5)c4)c3)n2)cc1` [Example G7, 4-(5-{3-[3-(4-Phenyl-imidazol-1-yl)-prop-1-ynyl]-phenyl}-tetrazol-2-ylmethyl)-benzoic acid], for which the IC50 worked out at 29 nM.

Take `O=C(O)c1ccc(Cn2nnc(-c3cncc(C#CCn4ccnc4)c3)n2)cc1` [Example H3, 4-{5-[5-(3-Imidazol-1-yl-prop-1-ynyl)-pyridin-3-yl]-tetrazol-2-ylmethyl}-benzoic acid]: the 50% inhibitory concentration (IC50) is 160 nM.

`O=C(O)c1ccc(Cn2nnc(-c3cccc(-c4ncc(-c5ccccc5)o4)c3)n2)cc1` [Example A4, 4-{5-[3-(5-Phenyl-oxazol-2-yl)-phenyl]-tetrazol-2-ylmethyl}-benzoic acid]: the IC50 was 400 nM.

For the compound `O=C(O)c1ccc(Cn2nnc(-c3cccc(C(=O)NCc4cccnc4)c3)n2)cc1` [Example F2, 4-(5-{3-[(Pyridin-3-ylmethyl)-carbamoyl]-phenyl}-tetrazol-2-ylmethyl)-benzoic acid; compound with trifluoro-acetic acid], the IC50 is 280 nM.

Regarding `COc1ccc(-c2cnc(-c3cccc(-c4nnn(Cc5ccc(F)c(F)c5)n4)c3)o2)cc1` [Example A8, 2-(3,4-Difluoro-benzyl)-5-{3-[5-(4-methoxy-phenyl)-oxazol-2-yl]-phenyl}-2H-tetrazole], the IC50 is 1300 nM.

In the case of `COc1ccc(-c2cnc(-c3cccc(-c4nnc(Cc5ccc(C(=O)O)cc5)o4)c3)o2)cc1` [Example B2, 4-(5-{3-[5-(4-Methoxy-phenyl)-oxazol-2-yl]-phenyl}-[1,3,4]oxadiazol-2-ylmethyl)-benzoic acid], the IC50 came to 200 nM.

As to `NCc1ccc(Cn2nnc(-c3cccc(C#CCc4ccccc4)c3)n2)cc1` [Example D6, 4-{5-[3-(3-Phenyl-prop-1-ynyl)-phenyl]-tetrazol-2-ylmethyl}-benzylamine], the IC50 is 2800 nM.

In the case of `COc1ccc(-c2cnc(-c3cccc(-c4nnn(Cc5ccc(C(=O)O)cc5)n4)c3)o2)cc1` [Example A7, 4-(5-{3-[5-(4-Methoxy-phenyl)-oxazol-2-yl]-phenyl}-tetrazol-2-ylmethyl)-benzoic acid], the IC50 was 18 nM.

Take `COc1ccc(-c2cnc(-c3cccc(-c4nnn(Cc5ccc(C(=O)OC(C)(C)C)cc5)n4)c3)o2)cc1` [Example A6, 4-(5-{3-[5-(4-Methoxy-phenyl)-oxazol-2-yl]-phenyl}-tetrazol-2-ylmethyl)-benzoic acid tertiary butyl ester]: the IC50 worked out at 1000 nM.

In the case of `CC(C#Cc1cccc(-c2nnn(Cc3ccc(C(=O)O)cc3)n2)c1)c1ccccc1` (centres unmarked) [Example G8, 4-{5-[3-(3-Phenyl-but-1-ynyl)-phenyl]-tetrazol-2-ylmethyl}-benzoic acid], the IC50 was 1800 nM.

Regarding `COc1ccc(-c2cnc(-c3cccc(-c4nnc(-c5ccc(C(=O)O)cc5)o4)c3)o2)cc1` [Example B1, 4-(5-{3-[5-(4-Methoxy-phenyl)-oxazol-2-yl]-phenyl}-[1,3,4]oxadiazol-2-yl)-benzoic acid], the IC50 worked out at 49000 nM.

Take “[4-(5-{3-[3-(4-Fluoro-phenyl)-prop-1-ynyl]-phenyl}-tetrazol-2-ylmethyl)-phenyl]-phosphonic acid [Example D2]”: the IC50 was determined as 13 nM.

As for `O=C(O)c1ccc(Cn2nnc(-c3cccc(-c4nnc(-c5ccccc5)o4)c3)n2)cc1` [Example A2, 4-{5-[3-(5-Phenyl-[1,3,4]oxadiazol-2-yl)-phenyl]-tetrazol-2-ylmethyl}-benzoic acid], the IC50 is more than 3000 nM.

For `O=C(O)c1ccc(Cn2nnc(-c3cccc(-c4nnc(Cc5ccccc5)o4)c3)n2)cc1` [Example A1, 4-{5-[3-(5-Benzyl-[1,3,4]oxadiazol-2-yl)-phenyl]-tetrazol-2-ylmethyl}-benzoic acid], the IC50 amounted to 440 nM.

With `O=C(O)c1ccc(Cn2nnc(-c3cncc(C#CCc4ccc(F)cc4)c3)n2)cc1` [Example H2, 4-(5-{5-[3-(4-Fluoro-phenyl)-prop-1-ynyl]-pyridin-3-yl}-tetrazol-2-ylmethyl)-benzoic acid], the half-inhibitory concentration (IC50) turned out to be 8.3 nM.

Consider `CC(=O)NCc1ccc(Cn2nnc(-c3cccc(C#CCc4ccccc4)c3)n2)cc1` [Example D8, N-(4-{5-[3-(3-Phenyl-prop-1-ynyl)-phenyl]-tetrazol-2-ylmethyl}-benzyl)-acetamide], for which the IC50 came out at 330 nM.

On to `CCCC(=O)NCc1ccc(Cn2nnc(-c3cccc(C#CCc4ccccc4)c3)n2)cc1` [Example D7, N-(4-{5-[3-(3-Phenyl-prop-1-ynyl)-phenyl]-tetrazol-2-ylmethyl}-benzyl)-butyramide], for which the IC50 was found to be 1300 nM.

Turning to `COc1ccc(-c2cnc(-c3cccc(-c4nnn(Cc5ccc(C(=O)O)cc5)n4)c3)s2)cc1` [Example A9, 4-(5-{3-[5-(4-Methoxy-phenyl)-thiazol-2-yl]-phenyl}-tetrazol-2-ylmethyl)-benzoic acid], the IC50 came out at 3.6 nM.

Take `CC(C)(C)OC(=O)c1ccc(Cn2nnc(-c3cccc(-c4ncc(-c5ccccc5)o4)c3)n2)cc1` [Example A3, 4-{5-[3-(5-Phenyl-oxazol-2-yl)-phenyl]-tetrazol-2-ylmethyl}-benzoic acid tertiary butyl ester]: the IC50 came out at 1400 nM.

Consider `O=C(O)c1ccc(Cn2nnc(-c3cccc(C#CCn4ccnc4)c3)n2)cc1` [Example G5, 4-{5-[3-(3-Imidazol-1-yl-prop-1-ynyl)-phenyl]-tetrazol-2-ylmethyl}-benzoic acid], for which the IC50 came out at 6.8 nM.

The values above are taken from patent publication US20090029995A1, “HETERO BIARYL DERIVATIVES AS MATRIX METALLOPROTEINASE INHIBITORS” (WARNER-LAMBERT COMPANY, priority 2002, published 2009).
